For test [1], the target named is T1, Human Indoleamine 2,3-dioxygenase (IDO) (Homo sapiens, UniProt P14902).
T1 construct: His tag (N); made in house; host or cells: E. coli
Nature of the test: Human IDO enzymatic assay (kynurenine level). To be noted: 6 nM IDO, 10 μM L-Trp; geometric mean; read-out: IDO1 GMean: IC50 (μM) (Biochemical Assay). It counts as biochemical. An outline of the steps:
(§1)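 IDO conditions: 6 nM His-IDO, 10 μM L-Trp, 5 μM methylene blue, 20 min, RT. TDO conditions: 1 nM His-TDO, 350 μM L-Trp, 0.4 μM methylene blue, 70 min, RT. Both used pH 6.5 phosphate plus ascorbate/catalase, TCA stop at 50° C, kynurenine readout, nonlinear-regression IC50.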

In test [2] the target is T2, Human Tryptophan 2,3-dioxygenase (TDO) (Homo sapiens, UniProt P48775).
T2 construct: His tag (N); made in house; host or cells: E. coli
Nature of the test: Human TDO enzymatic assay (kynurenine level). The following applies: 1 nM TDO, 350 μM L-Trp; geometric mean; read-out: TDO GMean: IC50 (μM) (Biochemical Assay). The format is biochemical. In outline: as §1

Test [3] addresses T3, human IDO (IDO1-expressing HEK293 cells) (Homo sapiens, UniProt P14902).
T3 construct: expressed in transfected cells
Nature of the test: Cell based kynurenine assay, IDO1-expressing HEK293 cell clones. The following applies: IDO1-expressing HEK293 cells, geometric mean, read-out: HEK293 IDO1 Kynurenine GMean IC50 (μM) (Cellular Assay). An outline of the steps:
(§2)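 Steps: seed IDO1- or TDO-expressing HEK293 cells at 2.5×10^4 per well; add compound dilutions; incubate 24 h; transfer supernatant and determine kynurenine; derive IC50 via nonlinear regression of percent inhibition.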

Test [4] deals with T4, human TDO (TDO-expressing HEK293 cells) (Homo sapiens, UniProt P48775).
T4 construct: expressed in transfected cells
Nature of the test: Cell based kynurenine assay, TDO-expressing HEK293 cell clones. The following applies: TDO-expressing HEK293 cells, geometric mean, read-out: HEK293 TDO Kynurenine GMean IC50 (μM) (Cellular Assay). An outline of the steps: as §2

Where two headings read alike, the source gives them in different places.

T4 sequence (P48775 whole entry): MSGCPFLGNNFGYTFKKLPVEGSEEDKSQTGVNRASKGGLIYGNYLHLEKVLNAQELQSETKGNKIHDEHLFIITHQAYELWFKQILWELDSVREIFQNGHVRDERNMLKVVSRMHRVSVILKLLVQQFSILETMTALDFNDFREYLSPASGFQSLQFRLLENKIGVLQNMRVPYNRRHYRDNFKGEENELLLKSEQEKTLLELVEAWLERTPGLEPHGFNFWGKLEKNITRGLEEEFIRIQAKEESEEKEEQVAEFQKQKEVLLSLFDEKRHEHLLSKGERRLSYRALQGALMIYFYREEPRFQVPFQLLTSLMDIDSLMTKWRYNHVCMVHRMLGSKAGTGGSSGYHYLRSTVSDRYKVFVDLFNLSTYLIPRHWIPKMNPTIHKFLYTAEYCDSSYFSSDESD
T2 sequence (P48775 whole entry): as above
T1 sequence (P14902 whole entry): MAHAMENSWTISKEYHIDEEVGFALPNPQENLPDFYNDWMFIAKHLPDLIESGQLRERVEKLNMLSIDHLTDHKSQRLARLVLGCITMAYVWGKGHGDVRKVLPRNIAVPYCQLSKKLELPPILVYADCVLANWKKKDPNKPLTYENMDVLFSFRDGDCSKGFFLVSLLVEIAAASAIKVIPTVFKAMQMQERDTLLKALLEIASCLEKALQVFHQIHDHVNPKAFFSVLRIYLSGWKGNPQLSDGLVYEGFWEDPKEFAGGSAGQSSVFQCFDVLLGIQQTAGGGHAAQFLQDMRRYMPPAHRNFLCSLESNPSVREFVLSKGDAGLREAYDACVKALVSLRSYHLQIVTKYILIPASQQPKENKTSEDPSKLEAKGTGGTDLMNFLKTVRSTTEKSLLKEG
T3 sequence (P14902 whole entry): as above

As for `COc1cc(CC(=O)N2CCC(C(F)(F)C(O)c3cc(Cl)cc4cn[nH]c34)CC2)ccn1` (stereo not shown) [Compound P-0526, 1-(4-(2-(5-chloro-1H-indazol-7-yl)-1,1-difluoro-2-hydroxyethyl)piperidin-1-yl)-2-(2-methoxypyridin-4-yl)ethan-1-one], the IC50 in test [1], in test [2], in test [3] (24 hours) and in test [4] (24 hours) was 0.0001 to 10 µM in each case.
In the case of `OC(c1cc(Cl)cc2cn[nH]c12)C1(C(F)(F)F)CCCC1` (stereo not shown) [Compound P-0053, (5-chloro-1H-indazol-7-yl)(1-(trifluoromethyl)cyclopentyl)methanol], the half-maximal inhibitory concentration (IC50) in test [1], in test [2], in test [3] (24 hours incubation) and in test [4] (24 hours incubation) was 0.0001 to 10 µM throughout.
Regarding `CC(O)(c1cc(Cl)cc2cn[nH]c12)C1CCCC1` (stereo not shown) [Compound P-0205, 1-(5-chloro-1H-indazol-7-yl)-1-cyclopentylethan-1-ol], the IC50 in test [1] is 10 to 100 µM; in test [2] it was 10 to 100 µM; in test [3] (24 hours incubation), more than 10 µM; in test [4] (24 hours incubation), 0.0001 to 10 µM.
Regarding `CC(C)(C1CCN(S(C)(=O)=O)CC1)[C@H](O)c1c(F)c(Cl)cc2cn[nH]c12` [Compound P-0515, (S)-1-(5-chloro-6-fluoro-1H-indazol-7-yl)-2-methyl-2-(1-(methylsulfonyl)piperidin-4-yl) propan-1-ol], the concentration for half-maximal inhibition (IC50) in test [1], in test [2], in test [3] (24 hours) and in test [4] (24 hours) was 0.0001 to 10 µM each time.
As for `CC(C)(C1CCS(=O)(=O)CC1)C(O)c1cc(Cl)cc2cn[nH]c12` (stereo not shown) [Compound P-0297, 4-(1-(5-chloro-1H-indazol-7-yl)-1-hydroxy-2-methylpropan-2-yl)tetrahydro-2H-thiopyran 1,1-dioxide], the IC50 in test [1], in test [2], in test [3] (24 hours incubation) and in test [4] (24 hours incubation) was 0.0001 to 10 µM throughout.
Regarding `O=C(NCC(F)(F)F)N1CCC(C(F)(F)C(O)c2cc(Cl)cc3cn[nH]c23)CC1` (stereo not shown) [Compound P-0333, 4-(2-(5-chloro-1H-indazol-7-yl)-1,1-difluoro-2-hydroxyethyl)-N-(2,2,2-trifluoroethyl) piperidine-1-carboxamide], the half-maximal inhibitory concentration (IC50) in test [1], in test [2], in test [3] (24 hours incubation) and in test [4] (24 hours incubation) was 0.0001 to 10 µM each time.
Regarding `CC(=O)N1CCC(C2(C(O)c3cc(Cl)cc4cn[nH]c34)CC2)CC1` (stereo not drawn) [Compound P-0130, 1-(4-(1-((5-chloro-1H-indazol-7-yl)(hydroxy)methyl)cyclopropyl)piperidin-1-yl)ethan-l-one], the 50% inhibitory concentration (IC50) in test [1], in test [2], in test [3] (24 hours incubation) and in test [4] (24 hours incubation) was 0.0001 to 10 µM in each case.
Consider `CC(C)(CCC#N)C(O)c1cc(Cl)cc2cn[nH]c12` (stereo not shown) [Compound P-0213, 5-(5-chloro-1H-indazol-7-yl)-5-hydroxy-4,4-dimethylpentanenitrile], for which the IC50 in test [1], in test [2], in test [3] (24 hours incubation) and in test [4] (24 hours incubation) was 0.0001 to 10 µM in each case.
For the molecule `CC(C)NC(=O)N1CCC(C(C)(C)[C@@H](O)c2cc(Cl)cc3cn[nH]c23)CC1` [Compound P-0429, (R)-4-(1-(5-chloro-1H-indazol-7-yl)-1-hydroxy-2-methylpropan-2-yl)-N-isopropylpiperidine-1-carboxamide], the 50% inhibitory concentration (IC50) in test [1] is 0.0001 to 10 µM; in test [2] it was 0.0001 to 10 µM; in test [3] (24 hours) it was more than 10 µM; in test [4] (24 hours), 0.0001 to 10 µM.
Take `CC(C)(C1CCN(C(=O)Nc2ccc(F)cc2)CC1)C(O)c1cc(Cl)cc2cn[nH]c12` (stereo not shown) [Compound P-0167, 4-(1-(5-chloro-1H-indazol-7-yl)-1-hydroxy-2-methylpropan-2-yl)-N-(4-fluorophenyl)piperidine-1-carboxamide]: the IC50 in test [1], in test [2], in test [3] (24 hours incubation) and in test [4] (24 hours incubation) was 0.0001 to 10 µM throughout.
For `CC(C)(CC1CCOCC1)C(O)c1cc(Cl)cc2cn[nH]c12` (stereo not shown) [Compound P-0254, 1-(5-chloro-1H-indazol-7-yl)-2,2-dimethyl-3-(tetrahydro-2H-pyran-4-yl)propan-1-ol], the 50% inhibitory concentration (IC50) in test [1], in test [2], in test [3] (24 hours incubation) and in test [4] (24 hours incubation) was 0.0001 to 10 µM each time.
On to `CC(C)(C1CCN(C(=O)NC2CC2)CC1)[C@H](O)c1c(F)c(Cl)cc2cn[nH]c12` [Compound P-0509, (S)-4-(1-(5-chloro-6-fluoro-1H-indazol-7-yl)-1-hydroxy-2-methylpropan-2-yl)-N-cyclopropylpiperidine-1-carboxamide], for which the concentration for half-maximal inhibition (IC50) in test [1], in test [2], in test [3] (24 hours) and in test [4] (24 hours) was 0.0001 to 10 µM in each case.
Consider `CC(C)(C1CCN(C(=O)Nc2ccccn2)CC1)C(O)c1cc(Cl)cc2cn[nH]c12` (stereo not shown) [Compound P-0389, 4-(1-(5-chloro-1H-indazol-7-yl)-1-hydroxy-2-methylpropan-2-yl)-N-(pyridin-2-yl)piperidine-1-carboxamide], for which the IC50 in test [1], in test [2], in test [3] (24 hours incubation) and in test [4] (24 hours incubation) was 0.0001 to 10 µM in each case.
`CC(C)(C)OC(=O)N1CCC(C(F)(F)[C@@H](O)c2cc(Cl)cc3cn[nH]c23)CC1` [Compound P-0517, tert-butyl (S)-4-(2-(5-chloro-1H-indazol-7-yl)-1,1-difluoro-2-hydroxyethyl) piperidine-1-carboxylate]: the IC50 in test [1] is 0.0001 to 10 µM; in test [2], more than 200 µM; in test [3] (24 hours), more than 10 µM; in test [4] (24 hours) it was more than 10 µM.
On to `OC(c1cc(Cl)cc2cn[nH]c12)C12CC3CC(CC(C3)C1)C2` [Compound P-0010, ((1S,3s)-adamantan-l-yl)(5-chloro-1H-indazol-7-yl)methanol], for which the IC50 in test [1], in test [2], in test [3] (24 hours incubation) and in test [4] (24 hours incubation) was 0.0001 to 10 µM throughout.
As to `COCC(=O)N1CCC(C(C)(C)[C@H](O)c2cc(Cl)cc3cn[nH]c23)CC1` [Compound P-0533, (S)-1-(4-(1-(5-chloro-1H-indazol-7-yl)-1-hydroxy-2-methylpropan-2-yl)piperidin-1-yl)-2-methoxyethan-1-one], the IC50 in test [1], in test [2], in test [3] (24 hours) and in test [4] (24 hours) was 0.0001 to 10 µM throughout.
In the case of `CC1(C)CN(c2cc(Cl)cc3cn[nH]c23)CCN1S(C)(=O)=O` [Compound P-0089, 5-chloro-7-(3,3-dimethyl-4-(methylsulfonyl)piperazin-1-yl)-1H-indazole], the concentration for half-maximal inhibition (IC50) in test [1], in test [2], in test [3] (24 hours incubation) and in test [4] (24 hours incubation) was 0.0001 to 10 µM each time.
Take `CS(=O)(=O)N1CCC(C2(C(O)c3cc(Cl)cc4cn[nH]c34)CC2)CC1` (stereo not shown) [Compound P-0158, (5-chloro-1H-indazol-7-yl)(1-(1-(methylsulfonyl)piperidin-4-yl)cyclopropyl)methanol]: the IC50 in test [1], in test [2], in test [3] (24 hours incubation) and in test [4] (24 hours incubation) was 0.0001 to 10 µM each time.
In the case of `OC1(c2cc(C(F)(F)F)cc3cn[nH]c23)CC2(CCC2)C1` [Compound P-0031, 2-(5-(trifluoromethyl)-1H-indazol-7-yl)spiro[3.3]heptan-2-ol], the IC50 in test [1] is 0.0001 to 10 µM; in test [2], 0.0001 to 10 µM; in test [3] (24 hours incubation), more than 10 µM; in test [4] (24 hours incubation) it was more than 10 µM.
Turning to `OC(c1c2c(cc3cn[nH]c13)CC2)C1(C2CCOCC2)CC1` (stereo not shown) [Compound P-0277, (5,6-dihydro-1H-cyclobuta[f]indazol-7-yl)(1-(tetrahydro-2H-pyran-4-yl)cyclopropyl)methanol], the IC50 was 0.0001 to 10 µM in test [1], 0.0001 to 10 µM in test [2], 0.0001 to 10 µM in test [3] (24 hours incubation) and more than 10 µM in test [4] (24 hours incubation).
On to `OC(c1cc(Cl)cc2cn[nH]c12)C(F)(F)C1CCOCC1` (stereo not shown) [Compound P-0192, 1-(5-chloro-1H-indazol-7-yl)-2,2-difluoro-2-(tetrahydro-2H-pyran-4-yl)ethan-1-ol], for which the IC50 in test [1], in test [2], in test [3] (24 hours incubation) and in test [4] (24 hours incubation) was 0.0001 to 10 µM in each case.
As to `CC(C)(C1CCN(C(=O)c2ccccc2Cl)CC1)C(O)c1cc(Cl)cc2cn[nH]c12` (stereo not shown) [Compound P-0368, (4-(1-(5-chloro-1H-indazol-7-yl)-1-hydroxy-2-methylpropan-2-yl)piperidin-1-yl)(2-chlorophenyl) methanone], the IC50 in test [1], in test [2], in test [3] (24 hours incubation) and in test [4] (24 hours incubation) was 0.0001 to 10 µM throughout.

For orientation: IC50 means the concentration at which inhibition is half-maximal.

Source of the values: patent publication US10508085B2, “Compounds and methods for IDO and TDO modulation, and indications therefor” (Plexxikon Inc., priority 2016, dated 2019).
